Molecules are shown by their SMILES. Counter-ions that a name gives are not always drawn.

The experiment has as its target T1, MPO (purified from human polynuclear leukocytes) (Homo sapiens, UniProt P05164).
T1 construct: purified from human polynuclear leukocytes; purchased Calbiochem/EMD Biosciences; host or cells: human polynuclear leukocytes (natural source)
As to the kind of experiment: MPO Amplex Red Activity Assay. Conditions: Table 1, 2 μM H2O2, pH 7.4. It is filed as biochemical. The procedure, abridged:
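Potency is given as kinact/KI: kobs values from 600 s progress curves, minus the uninhibited rate, are fit against inhibitor concentration. Reactions use 2 μM H2O2, 30 μM Amplex Red, pH 7.4 phosphate buffer with NaCl, DTPA and 2% DMSO, started with […] human MPO. Readout is resorufin fluorescence, catalase background subtracted.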

T1 sequence (P05164 279-745 limits assumed): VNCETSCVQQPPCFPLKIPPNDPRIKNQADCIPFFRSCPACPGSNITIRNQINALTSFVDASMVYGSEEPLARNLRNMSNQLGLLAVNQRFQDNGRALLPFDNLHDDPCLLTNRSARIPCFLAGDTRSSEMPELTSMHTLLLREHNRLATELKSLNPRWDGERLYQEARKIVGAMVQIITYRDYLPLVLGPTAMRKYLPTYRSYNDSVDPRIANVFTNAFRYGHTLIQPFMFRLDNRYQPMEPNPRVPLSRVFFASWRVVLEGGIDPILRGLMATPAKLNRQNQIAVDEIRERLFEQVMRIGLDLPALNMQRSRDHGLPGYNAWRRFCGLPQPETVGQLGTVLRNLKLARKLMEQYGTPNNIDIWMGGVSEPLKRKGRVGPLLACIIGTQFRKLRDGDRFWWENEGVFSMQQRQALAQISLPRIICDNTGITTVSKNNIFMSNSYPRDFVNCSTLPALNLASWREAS
T1 sequence (P05164 165-273 limits assumed): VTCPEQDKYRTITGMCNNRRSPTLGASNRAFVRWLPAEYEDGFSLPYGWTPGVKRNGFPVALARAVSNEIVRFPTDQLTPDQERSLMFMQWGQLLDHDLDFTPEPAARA

As to `COc1ccc(-c2cc(=O)[nH]c(=S)n2CCCC[C@H](N)C(N)=O)c(OC)c1` [Example 260, 6-[6-(2,4-dimethoxyphenyl)-4-oxo-2-thioxo-3,4-dihydropyrimidin-1(2H)-yl]norleucinamide hydrochloride], the “MPO kinact/Ki” value is reported as 19700 1/s per M.

As for `COc1ccc(-c2cc(=O)[nH]c(=S)n2Cc2ccn(C(N)=S)n2)c(OC)c1` [Example 261, 3-{[6-(2,4-dimethoxyphenyl)-4-oxo-2-thioxo-3,4-dihydropyrimidin-1(2H)-yl]methyl}-1H-pyrazole-1-carbothioamide], the “MPO kinact/Ki” value is reported as 2280 1/s per M.

With `COc1ccc(-c2cc(=O)[nH]c(=S)n2CC2CCCN2C(=O)CN)c(OC)c1` (stereo not drawn) [Example 262, 6-(2,4-dimethoxyphenyl)-1-[(1-glycylpyrrolidin-2-yl)methyl]-2-thioxo-2,3-dihydropyrimidin-4(1H)-one hydrochloride], the “MPO kinact/Ki” value is recorded as 1730 1/s per M.

As for `COc1ccc(-c2cc(=O)[nH]c(=S)n2CCNC(=O)[C@@H](N)C(C)C)c(OC)c1` [Example 263, N-{2-[6-(2,4-dimethoxyphenyl)-4-oxo-2-thioxo-3,4-dihydropyrimidin-1(2H)-yl]ethyl}-L-valinamide trifluoroacetate], the “MPO kinact/Ki” value is listed as 4340 1/s per M.

As to `COc1cccc(-c2cc(=O)[nH]c(=S)n2CCN)c1` [Example 264, 1-(2-aminoethyl)-6-(3-methoxyphenyl)-2-thioxo-2,3-dihydropyrimidin-4(1H)-one hydrochloride], the “MPO kinact/Ki” value is given as 3620 1/s per M.

On to `COc1cccc(-c2cc(=O)[nH]c(=S)n2CCCN)c1` [Example 265, 1-(3-aminopropyl)-6-(3-methoxyphenyl)-2-thioxo-2,3-dihydropyrimidin-4(1H)-one hydrochloride], for which the “MPO kinact/Ki” value was 3730 1/s per M.

As to `C=CCn1c(-c2ccc(OC)cc2OC)cc(=O)[nH]c1=S` [Example 266, 1-allyl-6-(2,4-dimethoxyphenyl)-2-thioxo-2,3-dihydropyrimidin-4(1H)-one], the “MPO kinact/Ki” value is reported as 604 1/s per M.

For the molecule `COc1ccc(-c2cc(=O)[nH]c(=S)n2C[C@H]2CCCN2)c(OC)c1` [Example 267, 6-(2,4-dimethoxyphenyl)-1-[(2R)-pyrrolidin-2-ylmethyl]-2-thioxo-2,3-dihydropyrimidin-4(1H)-one hydrochloride], the “MPO kinact/Ki” value is recorded as 3840 1/s per M.

As for `COc1ccc(-c2cc(=O)[nH]c(=S)n2C[C@@H]2CCCN2)c(OC)c1` [Example 268, 6-(2,4-dimethoxyphenyl)-1-[(2S)-pyrrolidin-2-ylmethyl]-2-thioxo-2,3-dihydropyrimidin-4(1H)-one hydrochloride hydrochloride hydrochloride, hydrochloride hydrochloride …], the “MPO kinact/Ki” value is recorded as 6640 1/s per M.

Regarding `COc1ccc(-c2cc(=O)[nH]c(=S)n2CCOCCN)c(OC)c1` [Example 269, 1-[2-(2-aminoethoxy)ethyl]-6-(2,4-dimethoxyphenyl)-2-thioxo-2,3-dihydropyrimidin-4(1H)-one hydrochloride], the “MPO kinact/Ki” value was 9510 1/s per M.

Turning to `COc1ccc(-c2cc(=O)[nH]c(=S)n2CCCN=C(N)N)c(OC)c1` [Example 270, 2-{3-[6-(2,4-dimethoxyphenyl)-4-oxo-2-thioxo-3,4-dihydropyrimidin-1(2H)-yl]propyl}guanidine trifluoroacetate], the “MPO kinact/Ki” value is given as 20500 1/s per M.

`COCCc1ccccc1-c1cc(=O)[nH]c(=S)n1CCO` [Example 271, 1-(2-hydroxyethyl)-6-[2-(2-methoxyethyl)phenyl]-2-thioxo-2,3-dihydropyrimidin-4(1H)-one]: the “MPO kinact/Ki” value was 2010 1/s per M.

As to `NCCn1c(-c2ccccc2OCC(N)=O)cc(=O)[nH]c1=S` [Example 272, 2-{2-[3-(2-aminoethyl)-6-oxo-2-thioxo-1,2,3,6-tetrahydropyrimidin-4-yl]phenoxy}acetamide trifluoroacetate], the “MPO kinact/Ki” value is given as 3160 1/s per M.

For the molecule `COc1cc(-c2cc(=O)[nH]c(=S)n2CCO)c(OC)cc1C` [Example 273, 6-(2,5-dimethoxy-4-methylphenyl)-1-(2-hydroxyethyl)-2-thioxo-2,3-dihydropyrimidin-4(1H)-one], the “MPO kinact/Ki” value is given as 8180 1/s per M.

Take `COc1ccc(-c2cc(=O)[nH]c(=S)n2CCO)c2ccccc12` [Example 274, 1-(2-hydroxyethyl)-6-(4-methoxy-1-naphthyl)-2-thioxo-2,3-dihydropyrimidin-4(1H)-one]: the “MPO kinact/Ki” value was 22800 1/s per M.

Consider `COCCn1c(-c2cc(OC)c(C)cc2OC)cc(=O)[nH]c1=S` [Example 275, 6-(2,5-dimethoxy-4-methylphenyl)-1-(2-methoxyethyl)-2-thioxo-2,3-dihydropyrimidin-4(1H)-one], for which the “MPO kinact/Ki” value was 4730 1/s per M.

Turning to `COCCn1c(-c2ccc3ccccc3c2)cc(=O)[nH]c1=S` [Example 276, 1-(2-methoxyethyl)-6-(2-naphthyl)-2-thioxo-2,3-dihydropyrimidin-4(1H)-one], the “MPO kinact/Ki” value is 6710 1/s per M.

For the molecule `COCCn1c(-c2ccco2)cc(=O)[nH]c1=S` [Example 277, 6-(2-furyl)-1-(2-methoxyethyl)-2-thioxo-2,3-dihydropyrimidin-4(1H)-one], the “MPO kinact/Ki” value is recorded as 767 1/s per M.

Take `COCCn1c(-c2ccn[nH]2)cc(=O)[nH]c1=S` [Example 278, 1-(2-methoxyethyl)-6-(1H-pyrazol-5-yl)-2-thioxo-2,3-dihydropyrimidin-4(1H)-one]: the “MPO kinact/Ki” value is reported as 1560 1/s per M.

Take `COCCn1c(-c2cccnc2)cc(=O)[nH]c1=S` [Example 279, 1-(2-methoxyethyl)-6-pyridin-3-yl-2-thioxo-2,3-dihydropyrimidin-4(1H)-one]: the “MPO kinact/Ki” value was 386 1/s per M.

`COCCn1c(-c2cncnc2)cc(=O)[nH]c1=S` [Example 280, 3-(2-methoxyethyl)-2-thioxo-2,3-dihydro-4,5′-bipyrimidin-6(1H)-one]: the “MPO kinact/Ki” value was 430 1/s per M.

Regarding `COCCn1c(-c2cccn2C)cc(=O)[nH]c1=S` [Example 281, 1-(2-methoxyethyl)-6-(1-methyl-1H-pyrrol-2-yl)-2-thioxo-2,3-dihydropyrimidin-4(1H)-one], the “MPO kinact/Ki” value is 1060 1/s per M.

Regarding `COCCn1c(-c2cccs2)cc(=O)[nH]c1=S` [Example 282, 1-(2-methoxyethyl)-6-(2-thienyl)-2-thioxo-2,3-dihydropyrimidin-4(1H)-one], the “MPO kinact/Ki” value was 1180 1/s per M.

In the case of `COCCn1c(-c2cccc(C)c2)cc(=O)[nH]c1=S` [Example 283, 1-(2-methoxyethyl)-6-(3-methylphenyl)-2-thioxo-2,3-dihydropyrimidin-4(1H)-one], the “MPO kinact/Ki” value is 2790 1/s per M.

With `COCCn1c(-c2ccccc2C)cc(=O)[nH]c1=S` [Example 284, 1-(2-methoxyethyl)-6-(2-methylphenyl)-2-thioxo-2,3-dihydropyrimidin-4(1H)-one], the “MPO kinact/Ki” value is given as 1470 1/s per M.

Consider `COCCn1c(-c2ccc(C)cc2)cc(=O)[nH]c1=S` [Example 285, 1-(2-methoxyethyl)-6-(4-methylphenyl)-2-thioxo-2,3-dihydropyrimidin-4(1H)-one], for which the “MPO kinact/Ki” value was 1750 1/s per M.

Consider `COCCn1c(-c2ccc(O)cc2)cc(=O)[nH]c1=S` [Example 286, 6-(4-hydroxyphenyl)-1-(2-methoxyethyl)-2-thioxo-2,3-dihydropyrimdin-4(1H)-one], for which the “MPO kinact/Ki” value was 1500 1/s per M.

Source of the values: patent US9399626B2, “2-thiopyrimidinones” (Pfizer Inc., priority 2011, dated 2016).
